Laboratory results reported in patent publication US4189426A, “Recombinant hormonal compositions and method” (Hoffmann-La Roche, Inc., priority 1978, dated 1980).
Read-outs that look alike come from different tables or passages of the source. Starred links: 1 amine or outer side, 2 acyl side, 3 side chain; linkers in the order of their positions; H or OH if unused. Non-standard residues stand in square brackets, D forms with d. No end group written: not given here. Cys(Cam) = carboxamidomethylated cysteine, NC(=O)CSC[C@H](N[*:1])C(=O)[*:2]

What was measured:
pigeon crop-sac = test: local crop-sac assay in the pigeon (prolactin / lactogenic activity); format: in vivo; conditions: for Dry mucosal weight: Table 4, pigeon crop-sac test; for Dry mucosal weight / Pigeon crop-sac assay Response (dry mucosal weight): mean ± standard error; for Pigeon crop-sac assay Response (dry mucosal weight): Table 1, four birds; for Response (dry mucosal weight): Table 10, mean ± SEM, number of birds in parentheses
Procedure: The growth-promoting activity of PL-HGH, the unpurified recombinant of Example 1 (fraction IV), [Cys(Cam)^53 -HGH-(1-134)], [Cys(Cam)^165, 182, 189 -HGH-(141-191)] and saline control were determined by the rat tibia test of Greenspan et al, Endocrinology 45, 455 (1949) and by the local crop-sac assay in the pigeon according to Lyons, Proc. Soc. Exp. Biol. 35, 645 (1937) and Nicoll, Endocrinology 80, 641 (1967). Amino acid compositions of acid and carboxypeptidase hydrolysates were determined in an automatic amino acid analyzer (model 120B, Beckman Instruments). For the analysis of tryptophan, the methanesulfonic acid hydrolysates were used. Amino-terminal residue and sequence analyses were preformed by the dansyl-Edman procedure. Isoelectric focusing was carried out in 8 M urea. Prolactin activity was estimated by the pigeon crop-sac assay. Microcomplement fixation experiments were performed with rabbit antisera to HCS. The gel-double-diffusion technique of Ouchterlony was done using 1% agar in 0.01 M phosphate buffer of pH 7.5. Exclusion chromatography of the purified fragments or the recombinant was performed on a Sephadex G-100 column (1.5×60 cm; V0 =35 ml) in 10 mM NH4 HCO3 (pH 8.4) at 21°. Circular dichroism (CD) spectra were obtained by a spectropolarimeter (Cary model 60) equipped with a circular dichroism attachment (model 6002). Microcomplement fixation was performed with the guinea pig antiserum to ovine prolactin. The gel double-diffusion technique of Ouchterlony was carried out with 1% agar in 10 mM phosphate buffer (pH 7.5). The prolactin activity was estimated by the local crop-sac assay in the pigeon.

rat tibia = rat tibia test (growth-promoting activity); format: in vivo; conditions: for Response (tibia width): mean ± SEM; for Response (tibia width) / Rat tibia assay Response (tibia width): four animals; for Rat tibia assay Response (tibia width): Table 1, mean ± standard error; for growth-promoting activity, result in words: rat tibia test; for Response (rat tibia test): Table 7, total dose of 600 μg in 4 days, means ± S.E., four test animals; for Relative potency to HGH: Tables 5 and 8
Procedure: The growth-promoting activity of PL-HGH, the unpurified recombinant of Example 1 (fraction IV), [Cys(Cam)^53 -HGH-(1-134)], [Cys(Cam)^165, 182, 189 -HGH-(141-191)] and saline control were determined by the rat tibia test of Greenspan et al, Endocrinology 45, 455 (1949) and by the local crop-sac assay in the pigeon according to Lyons, Proc. Soc. Exp. Biol. 35, 645 (1937) and Nicoll, Endocrinology 80, 641 (1967).
(§1) Plasmin fragments of reduced-carboxamidomethylation HGH and HCS were obtained as described above. Exclusion chromatography of the reaction mixture was performed at 22° C. on a Sephadex G-100 column (1.5×60 cm) in 0.01 M NH4 HCO3 of pH 8.4. For radioimmunoassay, the double-antibody procedure using a guinea pig antiserum to native HGH was performed. The growth-promoting activity was determined by the rat tibia test.

rabbit antisera to HCS = test: microcomplement fixation; format: binding; conditions: antiserum to HCS at a dilution of 1:5500; HCS at 10 ng
Procedure: (§2) Amino acid compositions of acid and carboxypeptidase hydrolysates were determined in an automatic amino acid analyzer (model 120B, Beckman Instruments). For the analysis of tryptophan, the methanesulfonic acid hydrolysates were used. Amino-terminal residue and sequence analyses were preformed by the dansyl-Edman procedure. Isoelectric focusing was carried out in 8 M urea. Prolactin activity was estimated by the pigeon crop-sac assay. Microcomplement fixation experiments were performed with rabbit antisera to HCS. The gel-double-diffusion technique of Ouchterlony was done using 1% agar in 0.01 M phosphate buffer of pH 7.5.

antisera to HCS = test: gel double-diffusion technique of Ouchterlony; format: binding, rabbit; conditions: HCS 10 μg, small fragment 40 μg
Procedure: as §2

[1] = system: guinea pig antiserum to native HGH; test: radioimmunoassay, double-antibody procedure; format: binding
Procedure: as §1

[2] = system: guinea pig antiserum to ovine prolactin; test: microcomplement fixation; format: binding; conditions: guinea pig antiserum to ovine prolactin at a dilution of 1:5000; 10 ng of the antigen
Procedure: (§3) Exclusion chromatography of the purified fragments or the recombinant was performed on a Sephadex G-100 column (1.5×60 cm; V0 =35 ml) in 10 mM NH4 HCO3 (pH 8.4) at 21°. Circular dichroism (CD) spectra were obtained by a spectropolarimeter (Cary model 60) equipped with a circular dichroism attachment (model 6002). Microcomplement fixation was performed with the guinea pig antiserum to ovine prolactin. The gel double-diffusion technique of Ouchterlony was carried out with 1% agar in 10 mM phosphate buffer (pH 7.5). The prolactin activity was estimated by the local crop-sac assay in the pigeon.

antiserum to prolactin = test: gel double-diffusion technique of Ouchterlony; format: binding
Procedure: as §3

Molecule: Cys (Cam)^53 -HCS-(1-133) [N]
- Dry mucosal weight (pigeon crop-sac; total dose 40 (mg)): 11.2 ± 0.7 mg
- Dry mucosal weight (pigeon crop-sac; total dose 120 (mg)): 12.0 ± 0.9 mg
- prolactin (lactogenic) activity, result in words (pigeon crop-sac; pigeon crop-sac assay): may have low activity but is much less than the native hormone
- Response (tibia width) (rat tibia; Table 5, total dose 300 μg): 185.5 ± 1.7 micrometers
- complement fixed (rabbit antisera to HCS): less than 10%
- precipitin reaction (antisera to HCS): weak precipitin line which showed non-identity with the native hormone

Molecule: Cys(Cam)^53 -HGH-(1-134) [reference compound]
- Pigeon crop-sac assay Response (dry mucosal weight) (pigeon crop-sac; total dose 0.65 nmol): 9.6 ± 1.8 mg
- Pigeon crop-sac assay Response (dry mucosal weight) (pigeon crop-sac; total dose 1.95 nmol): 12.4 ± 2.7 mg
- prolactin (lactogenic) activity, result in words (pigeon crop-sac; pigeon crop-sac assay): only a very small fraction of the comparative biological activities of the native human growth hormone
- Relative potency to PLHGH (pigeon crop-sac; pigeon crop-sac assay, Tables 1 and 2): less than 1%
- Rat tibia assay Response (tibia width) (rat tibia; total dose 3.26 nmol): 207.2 ± 1.5 micra
- Rat tibia assay Response (tibia width) (rat tibia; total dose 9.78 nmol): 235.5 ± 1.5 micra
- Response (tibia width) (rat tibia; Table 5, total dose 150 μg): 231.2 ± 1.6 micrometers
- Response (tibia width) (rat tibia; Table 5, total dose 450 μg): 275.0 ± 3.8 micrometers
- Relative potency to PLHGH (rat tibia; rat tibia assay, Tables 1 and 2): 8%
- growth-promoting activity, result in words (rat tibia): only a very small fraction of the comparative biological activities of the native human growth hormone
- radioimmunoassay inhibition / cross-reaction compared with HGH, in words [1]: only a slight cross-reaction

Molecule: Cys(Cam)^165,182,189 -HGH-(141-191) (QTYSKFDTNSHNDDALLKNYGLLY[Cys(Cam)]FRKDMDKVETFLRIVQ[Cys(Cam)]RSVEGS[Cys(Cam)]GF; UniProt P01241 167-217, looked up, fragment) [COOH-terminal plasmin fragment of reduced-carboxamidomethylated HGH, reference compound]
- Pigeon crop-sac assay Response (dry mucosal weight) (pigeon crop-sac; total dose 20.3 nmol): 13.4 ± 1.2 mg
- prolactin (lactogenic) activity, result in words (pigeon crop-sac; pigeon crop-sac assay): only a very small fraction of the comparative biological activities of the native human growth hormone
- Rat tibia assay Response (tibia width) (rat tibia; total dose 9.78 nmol): 186.7 ± 4.4 micra
- Response (rat tibia test) (rat tibia): 212 ± 7.3 microns
- growth-promoting activity, result in words (rat tibia; 182, 189 HGH-(141-191)]): only a very small fraction of the comparative biological activities of the native human growth hormone
- growth-promoting activity, result in words (rat tibia; listed as the 51 residue fragment): about nil

Molecule: Cys(Cam)^165, 182, 189, -HCS-141-191
- Dry mucosal weight (pigeon crop-sac; total dose 120 (mg)): 6.5 ± 1.4 mg
- complement fixed (rabbit antisera to HCS): less than 10%
- precipitin reaction (antisera to HCS): failed to give a precipitin reaction

Molecule: [Cys(Cam)HCS-(1-133)] + [Recombinant II, [Cys(Cam)HCS-(1-133)] + [Cys(Cam)^165,182,189 -HGH-(141-191)]]
- Response (tibia width) (rat tibia; Table 5, total dose 30 μg): 218.5 ± 9.8 micrometers
- Response (tibia width) (rat tibia; Table 5, total dose 90 μg): 229.0 ± 4.1 micrometers
- Relative potency to HGH (rat tibia; rat tibia assay): 10%
- growth-promoting activity, result in words (rat tibia): less active in comparison with that of I
- growth-promoting activity, result in words (rat tibia; listed as recombinant of Cys(Cam)^53 -HCS-(1-133) and Cys(Cam)^165, 182, 189 -HGH-(141-191)): measurable growth promoting activity but at a reduced level of potency than the aforesaid recombinants
- antigen concentration needed to give the same degree of inhibition, relative to HGH [1]: at least 30 times
- radioimmunoassay inhibition / cross-reaction compared with HGH, in words [1]: much less effective than HGH

Molecule: [Cys(Cam)^53 -HGH(1-134)] + [Recombinant I, [Cys(Cam)^53 -HGH(1-134)] + [Cys(Cam^165,182,189 -HCS-(141-191)]]
- Response (tibia width) (rat tibia; Table 5, total dose 20 μg): 212.0 ± 4.7 micrometers
- Response (tibia width) (rat tibia; Table 5, total dose 60 μg): 259.2 ± 2.9 micrometers
- Relative potency to Cys(Cam)^53 HGH-(1-134) (rat tibia; rat tibia assay, Table 5): 491%
- Relative potency to HGH (rat tibia; rat tibia assay): 50%
- growth-promoting activity, result in words (rat tibia): significant growth-promoting activity
- radioimmunoassay inhibition / cross-reaction compared with HGH, in words [1]: at low concentrations gave nearly identical inhibition to that of HGH
- radioimmunoassay inhibition / cross-reaction compared with HGH, in words ([1]; listed as recombinant of Cys (Cam)^53 -HGH-(1-134) and Cys (Cam)^165, 182, 189 -HCS-(141-1)): nearly full immunoreactivity against the antiserum to HGH

Molecule: [Cys(Cam)^53 ]-HGH(1-134) + [Nle^170, Ala^165, 182, 189 ]-HGH(145-191) [Recombinant IV]
- Response (tibia width) (rat tibia; Table 8, total dose 20 μg): 248.5 ± 7.7 micrometers
- Response (tibia width) (rat tibia; Table 8, total dose 60 μg): 297.2 ± 10.0 micrometers
- Relative potency to HGH (rat tibia; rat tibia assay): 113%

Molecule: [Cys(Cam)^ 53 ]-HGH(1-134) + [Nle^170, Ala^165, 182, 189 ]-HGH(140-191) [Recombinant III]
- Response (tibia width) (rat tibia; Table 8, total dose 20 μg): 249.2 ± 9.2 micrometers
- Response (tibia width) (rat tibia; Table 8, total dose 60 μg): 286.0 ± 2.1 micrometers
- Relative potency to HGH (rat tibia; rat tibia assay): 100%

Molecule: [Lys^135,136,138, Glu^137,139, Nle^170,Ala^165,182,189 ]-HGH-(135-191)
- Response (rat tibia test) (rat tibia): 192 ± 3.5 microns

Molecule: [Nle^170, Ala^165,182,189 ]-HGH-(140-191)
- Response (rat tibia test) (rat tibia): 197 ± 4.2 microns

Molecule: [Nle^170, Ala^165,182,189 ]-HGH-(145-191)
- Response (rat tibia test) (rat tibia): 189.5 ± 7.5 microns

Molecule: human growth hormone [HGH]
- Response (tibia width) (rat tibia; Table 5, total dose 20 μg): 242.8 ± 3.8 micrometers
- Response (tibia width) (rat tibia; Table 5, total dose 60 μg): 282.8 ± 1.5 micrometers
- Response (tibia width) (rat tibia; Table 8, total dose 20 μg): 245.0 ± 9.5 micrometers
- Response (tibia width) (rat tibia; Table 8, total dose 60 μg): 290.2 ± 2.9 micrometers

B1: human chorionic somatomammotropin (protein, UniProt P0DML2 27-217, looked up)
Chorionic somatomammotropin …: VQTVPLSRLFDHAMLQAHRAHQLAIDTYQEFEETYIPKDQKYSFLHDSQTSFCFSDSIPTPSNMEETQQKSNLELLRISLLLIESWLEPVRFLRSMFANNLVYDTSDSDDYHLLKDLEEGIQTLMGRLEDGSRRTGQILKQTYSKFDTNSHNHDALLKNYGLLYCFRKDMDKVETFLRMVQCRSVEGSCGF
notes: native human choriomammotropin hormone
- Dry mucosal weight (pigeon crop-sac; total dose 4 (mg)): 24.2 ± 2.9 mg
- Dry mucosal weight (pigeon crop-sac; total dose 12 (mg)): 30.5 ± 3.7 mg
- complement fixed (rabbit antisera to HCS): about 90%
- precipitin reaction (antisera to HCS): single sharp precipitin line

B2: Prolactin: prolactin isolated from sheep pituitary glands (protein, UniProt P01240 31-229, looked up)
Prolactin: TPVCPNGPGNCQVSLRDLFDRAVMVSHYIHNLSSEMFNEFDKRYAQGKGFITMALNSCHTSSLPTPEDKEQAQQTHHEVLMSLILGLLRSWNDPLYHLVTEVRGMKGVPDAILSRAIEIEEENKRLLEGMEMIFGQVIPGAKETEPYPVWSGLPSLQTKDEDARHSAFYNLLHCLRRDSSKIDTYLKLLNCRIIYNNNC
- Response (dry mucosal weight) (pigeon crop-sac; total dose 2 μg): 20.5 ± 0.9 mg
- Response (dry mucosal weight) (pigeon crop-sac; total dose 6 μg): 45.2 ± 3.1 mg
- complement fixed [2]: 98%
- precipitin line (antiserum to prolactin): single precipitin line
